These results are taken from patent US7781483B2, “Benzopyran compound” (Nissan Chemical Industries, Ltd., priority 2004, dated 2010).

Where a name gives a salt, the structure may show the parent alone.

The test system of this experiment is Atrium. Nature of the experiment: Effects on the effective refractory period (S1-S2 extrastimulus technique, anesthetized beagles under vagal nerve stimulation). The experiment is classed as in vivo. Conditions: 0.3 mg/kg intravenously, determined from 5 min after administration, bilateral vagal nerve stimulation, basic cycle length 300 msec, [after]-[before] drug administration. The protocol: Beagles were anesthetized with pentobarbital sodium and thoracotomy was done along the median line under a respirator and the incision was made on the pericardium to expose the heart. An electrocardiogram (ECG) was recorded using bipolar electrodes attached to the surface of the right atrial free wall, right atrial auricle, and right ventricular free wall. The vagal nerves were stimulated using an electrostimulation device with Nichrome wires inserted into the vagal nerves in the neck bilaterally. The conditions for electrostimulation to the vagal nerves were set such that the RR intervals on ECG were prolonged by about 100 msec compared with those before the stimulation was started.
Atrial and ventricular effective refractory periods were determined by S1-S2 extrastimulus technique at basic cycle length of 300 msec during bilateral vagal nerve stimulation, using programmable electric stimulator. A train of 10 basic stimuli (S1) was followed by a premature extrastimulus (S2) at 2 times diastolic threshold.
For evaluation of drug effects, the atrial and ventricular effective refractory periods were determined before drug administration, then respective compound was administrated intravenously at the dose of 0.3 mg/kg, and the atrial and ventricular effective refractory periods were determined from 5 min after the administration.
The results were shown as the prolongation time on the atrial and ventricular effective refractory periods, i.e. [effective refractory period after drug administration]−[effective refractory period before drug administration] (msec).
Take `COc1cc2c(cc1N(C)S(C)(=O)=O)OC(C)(C)[C@H](O)[C@H]2NCCc1ccccc1` (relative stereo) [Synthesis Example 3, N-{(3R*,4S*)-3-Hydroxy-6-methoxy-2,2-dimethyl-4-[(2-phenylethyl)amino]-3,4-dihydro-2H-1-benzopyran-7-yl}-N-methylmethanesulfonamide]: the “Prolongation time on the effective refractory period (msec) Atrium” value (“Prolongation time” for short) was 20 ms.

On to `COc1cc2c(cc1NS(C)(=O)=O)OC(C)(C)[C@H](O)[C@H]2NCCc1ccccc1` (relative stereo) [Synthesis Example 1, N-{(3R*,4S*)-3-Hydroxy-6-methoxy-2,2-dimethyl-4-[(2-phenylethyl)amino]-3,4-dihydro-2H-1-benzopyran-7-yl}methanesulfonamide], for which the “Prolongation time” value turned out to be 24 ms.

For `CC1(C)Oc2cc(NS(C)(=O)=O)ccc2[C@H](NCCc2ccccc2)[C@H]1O` (relative stereo) [Synthesis Example 7, N-{(3R*,4S*)-3-Hydroxy-2,2-dimethyl-4-[(2-phenylethyl)amino]-3,4-dihydro-2H-1-benzopyran-7-yl}methanesulfonamide maleate], the “Prolongation time” value worked out at 32 ms.

Consider `COc1cc2c(cc1NS(C)(=O)=O)OC(C)(C)[C@H](O)[C@H]2NCCC1CCCCC1` (relative stereo) [Synthesis Example 4, N-{(3R*,4S*)-4-[(2-Cyclohexylethyl)amino]-3-hydroxy-6-methoxy-2,2-dimethyl-3,4-dihydro-2H-1-benzopyran-7-yl}methanesulfonamide], for which the “Prolongation time” value turned out to be 26 ms.

Take `CN(c1ccc2c(c1)OC(C)(C)[C@H](O)[C@H]2NCCc1ccccc1)S(C)(=O)=O` (relative stereo) [Synthesis Example 12, N-{(3R*,4S*)-3-hydroxy-2,2-dimethyl-4-[(2-phenylethyl)amino]-3,4-dihydro-2H-benzopyran-7-yl}-N-methylmethanesulfonamide hydrochloride]: the “Prolongation time” value worked out at 28 ms.

With `Br.CC1(C)Oc2cc(NS(C)(=O)=O)c(O)cc2[C@H](NCCc2ccccc2)[C@H]1O` (relative stereo) [Synthesis Example 2, N-{(3R*,4S*)-3,6-Dihydroxy-2,2-dimethyl-4-[(2-phenylethyl)amino]-3,4-dihydro-2H-1-benzopyran-7-yl}methanesulfonamide], the “Prolongation time” value worked out at 26 ms.
